Reference: patent US8986733B2, “Materials and methods for nerve repair” (University of Florida Research Foundation, Inc., priority 2001, dated 2015)
“Also recorded” adds a separate entry of the source.

Columns and labels:
[1] = test system: embryonic chick DRG neurons; assay: Cryoculture assay of nerve explant cultures (predegeneration); assay type: cell-based; conditions: 2-day, 2% serum culture with GM6001 (50 μM); 68% without
Excerpt: Nerve explant culture for predegeneration experiments. Adult (180-200 gm) female SPRAGUE DAWLEY rats (HARLAN, Indianapolis, Ind.) were used as nerve donors and graft recipients. This project was reviewed and approved by the Institutional Animal Care and Use Committee. Donor rats were deeply anesthetized with isofluorane and decapitated. Sciatic nerves were exposed through a gluteal muscle-splitting incision and isolated free of underlying fascia. A 15-mm nerve segment was excised rostral to the bifurcation into common peroneal and tibial nerves. The segments were rinsed with sterile Ringer's solution and stabilized by pinning the ends to a thin plastic support. […]
Cryoculture bioassay. […] Neurite lengths were measured directly using IMAGE-PRO PLUS software (MEDIA CYBERNETICS, Silver Springs, Md.). At least 250 neurons with neurites greater than one cell body (˜15 μm) were scored for each condition in each experiment.
Freshly excised (cellular) rat sciatic nerve segments were cultured for up to 7 days in medium containing 0, 2 and 10% fetal bovine serum. Control (uncultured) and cultured nerves were cryosectioned and their neurite-promoting activity was assessed by cryoculture assay. […]

[2] = test system: MMP gelatinolytic activity; assay: In situ zymography of cultured nerve explants; assay type: biochemical, rat; conditions: nerves cultured 2-day, 2% serum in presence of GM6001
Description: In situ zymography for nerve predegeneration experiments. Cryosections (10 μm) of unfixed normal and cultured nerves were mounted on slides and overlaid with reaction buffer (50 mM Tris-HCl, 150 mM NaCl, 5 mM CaCl2, 0.2 mM sodium azide, pH 7.6) containing 20 μg/ml of intramolecularly quenched, fluorescein-labeled gelatin substrate (MOLECULAR PROBES INC., Eugene, Oreg.) (Oh et al., 1999). In the control condition, the MMP inhibitor EDTA (30 mM) was included in the reaction buffer. After incubation for 24 h at 37° C., the sections were rinsed with PBS and fixed with 4% paraformaldehyde in phosphate buffer. The sections were rinsed with water and mounted using Citifluor. Fluorescein-gelatin peptides generated by gelatinolytic activity in the tissue sections were observed and photographed by epifluorescence microscopy.
The activity of MMPs is regulated by gene transcription, proenzyme activation and by the action of tissue inhibitors of metalloproteinases. The net gelatinolytic activity in nerve segments by in situ zymography was examined. Tissue sections were overlaid with quenched, fluorescein-gelatin, which is converted to fluorescent peptides by gelatinolytic activity within tissues. Constitutive gelatinolytic activity was detected in normal nerve mostly associated with Schwann cells aligned along the endoneurial basal lamina (as shown in FIGS. 17A and 17B). […]

[3] = test system: cells of cultured nerve segments; assay: Dissociation culture (squash preparations) of nerve segments; assay type: cell-based, rat; conditions: nerve segments cultured 2 days with and without GM6001

CNC(=O)[C@H](Cc1c[nH]c2ccccc12)NC(=O)[C@@H](CC(=O)NO)CC(C)C [GM6001]
increase in neurite length over control nerves for nerves cultured in presence of inhibitor [1]: 14% | gelatinolytic activity in treated nerve explants [2]: nearly undetectable; also recorded: markedly decreased | cell viability (cell outgrowth) [3]: no loss of cell viability
